Experimental data: patent EP2790511B1 (Merck Sharp & Dohme Corp., priority 2011, dated 2013)

target: T1, hROMK (hKir1.1) (Homo sapiens, UniProt P48048); assay: Thallium Flux Assay; assay type: cell-based; details: HEK293 cells stably expressing hROMK (hKir1.1), FLIPR-Tetra; read-out: Thallium Flux IC50
T1 construct: expressed in transfected cells
T1 sequence (P48048 1-391): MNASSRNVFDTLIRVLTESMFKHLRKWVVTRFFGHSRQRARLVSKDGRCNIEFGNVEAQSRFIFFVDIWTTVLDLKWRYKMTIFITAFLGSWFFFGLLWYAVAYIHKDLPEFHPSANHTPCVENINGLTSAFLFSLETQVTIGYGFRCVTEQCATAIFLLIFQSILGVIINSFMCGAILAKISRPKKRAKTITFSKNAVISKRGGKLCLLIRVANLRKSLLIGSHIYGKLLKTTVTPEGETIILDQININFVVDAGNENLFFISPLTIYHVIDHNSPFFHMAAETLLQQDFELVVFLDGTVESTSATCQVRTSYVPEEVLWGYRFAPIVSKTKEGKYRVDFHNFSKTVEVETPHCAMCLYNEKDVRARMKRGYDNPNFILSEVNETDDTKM
Protocol: Cell Culture Conditions- HEK293 cells stably expressing hROMK (hKir1.1) were grown at 37°C in a 10%CO2 humidified incubator in complete growth media: Dulbecco's Modified Eagle Medium supplemented with non-essential amino acids, Penicillin/Streptomycin/Glutamine, G418 and FBS. At >80% confluency, aspirate the media from the flask and rinse with 10 mL Calcium/Magnesium-free PBS. […] To dislodge the cell, gently bang the side of the flask with your hand. Triturate the cells completely and then transfer the cells to 25 mL complete media. Centrifuge at 1,500 rpm for 6 min followed by resuspension in complete growth media and determine cell concentration. […] Under ideal growth conditions and appropriate tissue culture practices, this cell line is stable for 40-45 passages.
• FluxOR™ Reagent (Component A) • FluxOR™ Assay Buffer (Component B) - 10X Concentrate • PowerLoad™ Concentrate (Component C) - 100X Concentrate • Probenecid (Component D) - Lyophilized sample is kept at -20°C. Water soluble, 100X after solubilization in 1 mL water. […] Store at 4°C. • Thallium sulfate (Tl2SO4) Concentrate (Component G) - 50 mM in water. Store at 4°C • DMSO (dimethyl sulfoxide, Component H) - 1 mL (100%)
• 1000X FluxOR™ Reagent: Reconstitute a vial of component A in 100 µl DMSO; Mix well; Store 10 µl aliquots at -20°C • 1X FluxOR™ Assay Buffer: Dilute Component B 10-fold with water; Adjust pH to 7.4 with Hepes/NaOH; Filter and store at 4°C • Probenecid/Assay Buffer: 100 mL of 1X FluxOR™ Assay Buffer; 1 mL of reconstituted component D; Store at 4°C • Loading Buffer (per microplate): 10 µl 1000X FluxOR™ Reagent; 100 µl component C; 10 mL Probenecid/Assay Buffer • Compound Buffer (per microplate): 20 mL Probenecid/Assay Buffer; 0.3 mM ouabain (10 mM ouabain in water can be stored in amber bottle/aluminum foil at room temperature); Test compound • 1X FluxOR™Chloride-Free Buffer: Prepare 1X working solution in water. Can be stored at room temperature • Stimulant Buffer (prepared at 5X final concentration in 1X FluxOR™Chloride-Free Buffer): 7.5 mM Thallium sulfate and 0.75 mM Potassium sulfate (to give a final assay concentration of 3 mM Thallium/ 0.3 mM Potassium). Store at 4°C when not in use. If kept sterile, this solution is good for months.
Assay protocol- The ROMK channel functional thallium flux assay is performed in 384 wells, using the FLIPR-Tetra instrument. HEK-hKir1.1 cells are seeded in Poly-D-Lysine microplates and kept in a 37°C-10%CO2 incubator overnight. On the day of the experiment, the growth media is replaced with the FluxOR™ reagent loading buffer and incubated, protected from light, at ambient temperature (23-25°C) for 90 min. The loading buffer is replaced with assay buffer ± test compound followed by 30 min incubation at ambient temperature, where the Thallium/Potassium stimulant is added to the microplate.
• 1. Seed HEK-hKir1.1 cells (50 µl at 20,000 cells/well) in 384-well PDL coated Microplates • 2. Allow cells to adhere overnight in humidified 37°C/10%CO2 incubator • 3. Completely remove cell growth media from microplate and replace with 25 µl loading buffer • 4. Incubate Microplate at room temperature, protected form light, for 90 min • 5. Remove loading buffer and replace with 25 µl 1x Assay Buffer ± test compound. • 6. Incubate microplate at room temperature, protected form light, for 30 min • 7. […] Excitation = 400 nm, Emission = 460 & 580 nm. Collect data for ∼ 10 min.
Data Calculation- The fluorescence intensity of wells containing 3 µM of a standard control ROMK inhibitor of the present invention is used to define the ROMK-sensitive component of thallium flux. Fluorescence in the presence of test compounds is normalized to control values to provide % fluorescence change.

SMILES	IC50 [nM]
N#Cc1c(F)ccc([C@H]2CN3CCN(C(=O)Cc4ccc(-n5cnnn5)nc4)C[C@H]3CO2)c1F [Example 12, 2,6-difluoro-3-[(3S,9aS)-8-{[6-(1H-tetrazol-1-yl)pyridin-3-yl]acetyl}octahydropyrazino[2,1-c][1,4]oxazin-3-yl]benzonitrile]	120
COc1cc([C@@H]2CN3CCN(C(=O)Cc4ccc(-n5cnnn5)nc4)C[C@@H]3CO2)cc(F)c1C#N [Example 111, 2-fluoro-6-methoxy-4-[(3R,9aR)-8-{[6-(1H-tetrazol-1-vl)pvridin-3-yl]acetyl}octahydropyrazino[2,1-c][1,4]oxazin-3-yl]benzonitrile]	170
Cc1cc([C@H]2CN3CCN(C(=O)Cc4ccc(-n5cnnn5)nc4)C[C@@H]3CO2)c(C)c(C#N)c1F [Example 173, 2-fluoro-3,6-dimethyl-5-[(3S,9aR)-8-{[6-(1H-tetrazol-1-vl)pvridin-3-yl]acetyl}octahydropyrazino[2,1-c][1,4]oxazin-3-yl]benzonitrile]	300
Cc1c([C@@H]2CN3CCN(C(=O)Nc4ccc(-n5cnnn5)cn4)C[C@H]3CO2)ccc(F)c1C#N [Example 201, (3R,9aS)-3-(3-cyano-4-fluoro-2-methylphenyl)-N-[5-(1H-tetrazol-1-yl)pyridin-2-yl]hexahydropyrazino[2,1-c][1,4]oxazine-8(1H)-carboxamide]	320
Cc1c([C@@H]2CN3CCN(C(=O)Cc4ccc(-n5cnnn5)nc4)C[C@H]3CO2)cccc1-n1cnnn1 [Example 104, (3R,9aS)-3-[2-methyl-3-(1H-tetrazol-1-yl)phenyl]-8-{[6-(1H-tetrazol-1-yl)pyridin-3-yl]acetyl}octahydropyrazino[2,1-c][1,4]oxazine]	480
COc1cc([C@@H]2CN3CCN(C(=O)Cc4cnc(-n5cnnn5)cc4C)C[C@@H]3CO2)ccc1C#N [Example 45, 2-methoxy-4-[(3R,9aR)-8-{[4-methyl-6-(1H-tetrazol-1-vl)pvridin-3-yl]acetyl}octahydropyrazino[2,1-c][1,4]oxazin-3-yl]benzonitrile]	250
Cc1c([C@H]2CN3CCN(C(=O)Cc4ccc(-n5cnnn5)cn4)C[C@H]3CN2)ccc(F)c1C#N [Example 191, 6-fluoro-2-methyl-3-[(3S,9aR)-8-{[5-(1H-tetrazol-1-yl)pyridin-2-yl]acetyl}octahydro-2H-pyrazino[1,2-a]pyrazin-3-yl]benzonitrile]	120
Cc1c([C@H]2CN3CCN(C(=O)Cc4cccc(-n5cnnn5)n4)C[C@@H]3CO2)ccc(F)c1C#N [Example 160, 6-fluoro-2-methyl-3-[(3S,9aR)-8-{[6-(1H-tetrazol-1-yl)pyridin-2-yl]acetyl}octahydropyrazino[2,1-c][1,4]oxazin-3-yl]benzonitrile]	390
Cc1c([C@H]2CN3CCN(C(=O)Cc4ccc(-n5cnnn5)nn4)C[C@H]3CO2)ccc(F)c1C#N [Example 155, 6-fluoro-2-methyl-3-[(3S,9aS)-8-{[6-(1H-tetrazol-1-yl)pyridazin-3-yl]acetyl}octahydropyrazino [2,1-c][1,4]oxazin-3-yl]benzonitrile]	300
Cc1c([C@H]2CN3CCN(C(=O)Cc4ccc(-n5cnnn5)nc4)C[C@H]3CO2)ccc(Cl)c1C#N [Example 64, 6-chloro-2-methyl-3-[(3S,9aS)-8-{[6-(1H-tetrazol-1-yl)pyridin-3-yl]acetyl}octahydropyrazino[2,1-c][1,4]oxazin-3-yl]benzonitrile]	680
O=C(Cc1ccc(-n2cnnn2)nc1)N1CCN2C[C@@H](c3cccc(-n4cnnn4)c3)OC[C@@H]2C1 [Example 103, (3R,9aS)-3-[3-(1H-tetrazol-1-yl)phenyl]-8-{[6-(1H-tetrazol-1-vl)pvridin-3-yl]acetyl}octahydropyrazino[2,1-c][1,4]oxazine]	340
Cc1c([C@H]2CN3CCN(C(=O)Cc4cnc(-n5cnnn5)c(F)c4)C[C@H]3CO2)ccc(F)c1C#N [Example 149, 6-fluoro-3-[(3S,9aS)-8-{[5-fluoro-6-(1H-tetrazol-1-yl)pyridin-3-yl]acetyl}octahydropyrazino[2,1-c][1,4]oxazin-3-yl]-2-methylbenzonitrile]	130
N#Cc1c(F)ccc([C@@H]2CN3CCN(C(=O)Cc4ccc(-n5cnnn5)cn4)C[C@H]3CO2)c1F [Example 54, 2,6-difluoro-3-[(3R,9aS)-8-{[5-(1H-tetrazol-1-yl)pyridin-2-yl]acetyl}octahydropyrazino[2,1-c][1,4]oxazin-3-yl]benzonitrile]	100

same assay, conditions: Thallium Flux IC50

SMILES	IC50 [nM]
N#Cc1c(F)ccc([C@@H]2CN3CCN(C(=O)Cc4ccc(-n5cnnn5)nc4)C[C@H]3CO2)c1F [Example 11, 2,6-difluoro-3-[(3R,9aS)-8{[6-(1H-tetrazol-1-yl)pyridin-3-yl]acetyl}octahydropyrazino[2,1-c][1,4]oxazin-3-yl]benzonitrile]	90
N#Cc1c(F)ccc([C@@H]2CN3CCN(C(=O)Cc4cnc(-n5cnnn5)nc4)C[C@H]3CO2)c1Cl [Example 136, 2-chloro-6-fluoro-3-[(3R,9aS)-8-{[2-(1H-tetrazol-1-yl)pyrimidin-5-yl]acetyl}octahydropyrazino[2,1-c][1,4]oxazin-3-yl]benzonitrile]	40
Cc1c([C@@H]2CN3CCN(C(=O)Cc4ccc(-n5cnnn5)nc4)C[C@@H]3CO2)ccc(F)c1C#N [Example 102, 6-fluoro-2-methyl-3-[(3R,9aR)-8-{[6-(1H-tetrazol-1-yl)pyridin-3-yl]acetyl}octahydropyrazino[2,1-c][1,4]oxazin-3-yl]benzonitrile]	150
Cc1c([C@H]2CN3CCN(C(=O)Cc4ccc(-n5cnnn5)nc4)C[C@H]3CO2)ccc2c1COC2=O [Example 21, 4-methyl-5-[(3S,9aS)-8-{[6-(1H-tetrazol-1-yl)pyridin-3-yl]acetyl}octahydropyrazino[2,1-c][1,4]oxazin-3-yl]-2-benzofuran-1(3H)-one]	100
Cc1nc(-n2cnnn2)ncc1CC(=O)N1CCN2C[C@H](c3ccc(F)c(C#N)c3C)OC[C@H]2C1 [Example 119, 6-fluoro-2-methyl-3-[(3S,9aR)-8-{[4-methyl-2-(1H-tetrazol-1-vl)pvrimidin-5-yl]acetyl}octahydropyrazino[2,1-c][1,4]oxazin-3-yl]benzonitrile]	330
Cc1c([C@H]2CN3CCN(C(=O)Cc4cnc(-n5cnnn5)cn4)C[C@H]3CO2)ccc2c1COC2=O [Example 83]	160
O=C1OCCc2cc([C@@H]3CN4CCN(C(=O)Cc5cnc(-n6cnnn6)nc5)C[C@H]4CO3)ccc21 [Example 145, 6-[(3R,9aS)-8-{[2-(1H-tetrazol-1-yl)pyrimidin-5-yl]acetyl}octahydropyrazino[2,1-c][1,4]oxazin-3-yl]-3,4-dihydro-1H-isochromen-1-one]	240
